Assay results: patent publication US11459337B2, “Isothiazolo[5,4-D]pyrimidine compound as IRAK4 inhibitor” (priority 2018, dated 2022)

Tests used:
Assay type in all cases: in vitro ADME
[1] = In vitro metabolic stability in liver microsome, human; details: Human liver microsomes, 1 μM compound, 0.5 mg/mL protein
Description: (§1) Metabolic Stability in Liver Microsome The test compounds at 1 μM were co-incubated with liver microsomes having a protein concentration of 0.5 mg/mL under the action of a reductive coenzyme II regeneration system in a 37° C. water bath. • 1) Positive controls included: testosterone (3A4 substrate), propylamine propiophenone (2D6 substrate), and diclofenac (2C9 substrate). The positive controls were incubated in the same condition as the test compounds. • 2) The reaction was stopped using a stop reagent containing the internal standard at time points of 0, 5, 10, 20, 30 and 60 minutes. […] CLint^mic: intrinsic microsomal clearance;

[2] = In vitro metabolic stability in liver microsome, rat; details: Rat liver microsomes, 1 μM compound, 0.5 mg/mL protein
Description: as §1

[3] = In vitro metabolic stability in liver microsome, dog; details: Dog liver microsomes, 1 μM compound, 0.5 mg/mL protein
Description: as §1

[4] = In vitro metabolic stability in liver microsome, mouse; details: Mouse liver microsomes, 1 μM compound, 0.5 mg/mL protein
Description: as §1

[5] = In vitro metabolic stability in liver microsome, monkey; details: Monkey liver microsomes, 1 μM compound, 0.5 mg/mL protein
Description: as §1

c1cc2c(N[C@H]3CC[C@H](N4CCOCC4)CC3)nc(Nc3cnn(C4CCOCC4)c3)nc2s1 [WXR1, reference compound]
Re1 h % (residue of test compound at 1 hour) [1]: 23.7%
Re1 h % (residue of test compound at 1 hour) [2]: 32.3%
Re1 h % (residue of test compound at 1 hour) [3]: 5.5%
Re1 h % (residue of test compound at 1 hour) [4]: 0.0%
Re1 h % (residue of test compound at 1 hour) [5]: 0.6%
